Reference: ChEMBL document CHEMBL1143368, “The translocator protein (18 kDa): central nervous system disease and drug design” (J Med Chem, 2009)

Assays:
[1] = biological target: Translocator protein (Homo sapiens) (UniProt P30536); experiment: Displacement of [3H]Ro5-4864 from TSPO
Rattus norvegicus [2] = species: Rattus norvegicus; experiment: Displacement of [3H]Ro5-4864 from GABAA receptor in rat brain membrane; assay type: cell membranes
[3] = biological target: Translocator protein (Mus musculus) (UniProt P50637); experiment: Binding affinity to mitochondrial TSPO in mouse MA10 cells in presence of human chorionic gonadotropin; assay type: cell-based
U-937 [4] = experiment: Antiapoptotic activity against TNF-alpha-induced apoptosis in human U937 cells; assay type: functional
U-937 [5] = experiment: Induction of apoptosis in human U937 cells; assay type: functional
[6] = biological target: Translocator protein (Homo sapiens) (UniProt P30536); experiment: Displacement of [3H]Ro5-4864 from TSPO in caudate nucleus of patient with Huntington's disease; conditions: tested as the 3H-labelled form
[7] = biological target: Translocator protein (Homo sapiens) (UniProt P30536); experiment: Displacement of [3H]Ro5-4864 from TSPO in putamen of healthy human; conditions: tested as the 3H-labelled form
[8] = biological target: Translocator protein (Homo sapiens) (UniProt P30536); experiment: Binding affinity to TSPO in parietal lobe of healthy human; assay type: tissue-based; conditions: tested as the 125I-labelled form
[9] = biological target: Translocator protein (Homo sapiens) (UniProt P30536); experiment: Binding affinity to TSPO in white matter of healthy human; assay type: tissue-based; conditions: tested as the 125I-labelled form
[10] = biological target: Translocator protein (Homo sapiens) (UniProt P30536); experiment: Binding affinity to TSPO in temporal lobe of healthy human; assay type: tissue-based; conditions: tested as the 125I-labelled form
[11] = biological target: Translocator protein (Homo sapiens) (UniProt P30536); experiment: Binding affinity to TSPO in parietal lobe of patient with Alzheimer's disease; conditions: tested as the 125I-labelled form
[12] = biological target: Translocator protein (Homo sapiens) (UniProt P30536); experiment: Binding affinity to TSPO in white matter of patient with Alzheimer's disease; assay type: tissue-based; conditions: tested as the 125I-labelled form
[13] = biological target: Translocator protein (Homo sapiens) (UniProt P30536); experiment: Binding affinity to TSPO in temporal lobe of patient with Alzheimer's disease; conditions: tested as the 125I-labelled form
Translocator protein = Translocator protein (Rattus norvegicus, UniProt P16257); experiment: Displacement of [3H]PK11195 from TSPO in rat cortex
Rattus norvegicus [14] = species: Rattus norvegicus; experiment: Displacement of [3H]diazepam from central benzodiazepine receptor in Wistar rat […] by scintillation counting

Chain of Translocator protein (Homo sapiens) (P30536 whole entry): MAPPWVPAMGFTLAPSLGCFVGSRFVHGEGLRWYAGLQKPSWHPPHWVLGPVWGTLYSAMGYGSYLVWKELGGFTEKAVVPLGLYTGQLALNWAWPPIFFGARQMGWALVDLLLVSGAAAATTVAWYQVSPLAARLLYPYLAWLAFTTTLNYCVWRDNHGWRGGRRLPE
Chain of Translocator protein (P16257 whole entry, looked up): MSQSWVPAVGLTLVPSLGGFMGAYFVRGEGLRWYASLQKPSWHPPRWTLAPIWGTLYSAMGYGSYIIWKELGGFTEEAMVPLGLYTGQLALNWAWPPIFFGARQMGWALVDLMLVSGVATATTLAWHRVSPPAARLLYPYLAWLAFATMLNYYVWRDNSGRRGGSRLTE
Chain of Translocator protein (Mus musculus) (P50637 whole entry, looked up): as the sequence (P16257 whole entry, looked up) above, with S2P, Q3E, I67V, E77D, V110A, M113L, M149V, T168P counted along it

Structure (SMILES): CN1C(=O)CN=C(c2ccc(Cl)cc2)c2cc(Cl)ccc21 [RO-54864]
- Activity [1]: 7.3 nM
- Activity (Rattus norvegicus [2]): 163 µM
- Activity [3]: 0.2 nM
- Activity (U-937 [4]): 10 µM
- Activity (U-937 [5]): >10 µM
- Bmax [6]: 61.7 fmol/mg
- Bmax [7]: 40.7 fmol/mg

Structure (SMILES): COc1ccc(OC)c(CN(C(C)=O)c2cc(I)ccc2Oc2ccccc2)c1
- Bmax [8]: 0.32 fmol/mg
- Bmax [9]: 0.24 fmol/mg
- Bmax [10]: 0.22 fmol/mg
- Bmax [11]: 1.26 fmol/mg
- Bmax [12]: 1.12 fmol/mg
- Bmax [13]: 1.02 fmol/mg

Structure (SMILES): CCCCCCN(CCCCCC)C(=O)Cc1c(-c2ccc(F)cc2)[nH]c2ccccc12
- Ki (Translocator protein): 5 nM

Structure (SMILES): CN1C(=O)CN=C(c2ccccc2)c2cc(Cl)ccc21
- Activity (Rattus norvegicus [14]): 40 nM

Structure (SMILES): CC(=O)N(Cc1ccccc1OC(C)C)c1ccc(Cl)cc1Oc1ccccc1
- Ki (Translocator protein): 0.92 nM
